Tests used:
[1] = background statement; cited from earlier work
[2] = ED50 of alphaxalone (basis of the dose in the histamine test); conditions: in vivo
[3] = tested on: histamine content in mouse plasma; assay: Mouse histamine release: plasma histamine content (ELISA) 30 min after intravenous injection; conditions: mice
Method: Overall test method: the corresponding solution or formulation was prepared. Administration was performed by intravenous injection, and blood was collected 30 min after administration. After anticoagulation with EDTA, the blood was centrifuged to collect the plasma, and the histamine content in mouse plasma was measured with an ELISA kit.
Blank plasma: blood was directly collected from mice and centrifuged.
Normal saline: normal saline was injected at an administration volume of 5 mL/kg.
Blank fat emulsion (20% medium-long-chain fat emulsion): the administration volume was 5 mL/kg.
SBE-β-CD: the preparation method was: 0.7 mL of 13% SBE-β-CD+4.3 mL of normal saline, and the administration volume was 5 mL/kg. […] Cremophor EL: 0.7 mL of Cremophor EL+4.3 mL of normal saline, the concentration of Cremophor EL was 0.14 mL/mL, the dose was 5 mL/kg, and the dose of Cremophor EL was 0.7 mL/kg.
SBE-β-CD & Cremophor EL: 0.7 mL of 13% SBE-β-CD+0.7 mL of Cremophor EL+3.6 mL of normal saline, and the administration volume was 5 mL/kg.
The administration volume was 3.5 mL/kg, the dose was 7 mg/kg; the administration amount of castor oil was 0.245 mL/kg.

C[C@]12CC[C@@H](O)C[C@@H]1CC[C@H]1[C@@H]3CC[C@H](C(=O)CO)[C@@]3(C)CC(=O)[C@@H]12 [alphadolone]
potency of alphadolone relative to alphaxalone [1]: half

CC(=O)[C@H]1CC[C@H]2[C@@H]3CC[C@H]4C[C@H](O)CC[C@]4(C)[C@H]3C(=O)C[C@]12C [alphaxalone]
ED50 of alphaxalone [2]: about 3.5 mg/kg

sulfobutyl-β-cyclodextrin [SBE-β-CD]
Plasma histamine concentration [3]: 15.28 ± 2.33 ng/mL

Reference: patent US20260007687A1, “A[…] EMULSION INJECTION AND METHOD FOR PREPARING SAME” (JIANGSU NHWA PHARMACEUTICAL CO., LTD, priority 2022, published 2026)
